From ChEMBL document CHEMBL3120056 (Eur J Med Chem, 2014) come the findings set out here.

Common to all, as to format: cell-based
Test [1] addresses Somatostatin receptor type 3 (Homo sapiens, UniProt P32745). The test is described as follows: Displacement of [125I]-[LTT]-SS28 from human SST3 receptor expressed in Chinese hamster CCL-39 cells after 2 hrs by autoradiographic analysis.
In test [2] the target is Somatostatin receptor type 4 (Homo sapiens, UniProt P31391). The test is described as follows: Displacement of [125I]-[LTT]-SS28 from human SST4 receptor expressed in Chinese hamster CCL-39 cells after 2 hrs by autoradiographic analysis.
Chain of Somatostatin receptor type 4 (P31391 whole entry): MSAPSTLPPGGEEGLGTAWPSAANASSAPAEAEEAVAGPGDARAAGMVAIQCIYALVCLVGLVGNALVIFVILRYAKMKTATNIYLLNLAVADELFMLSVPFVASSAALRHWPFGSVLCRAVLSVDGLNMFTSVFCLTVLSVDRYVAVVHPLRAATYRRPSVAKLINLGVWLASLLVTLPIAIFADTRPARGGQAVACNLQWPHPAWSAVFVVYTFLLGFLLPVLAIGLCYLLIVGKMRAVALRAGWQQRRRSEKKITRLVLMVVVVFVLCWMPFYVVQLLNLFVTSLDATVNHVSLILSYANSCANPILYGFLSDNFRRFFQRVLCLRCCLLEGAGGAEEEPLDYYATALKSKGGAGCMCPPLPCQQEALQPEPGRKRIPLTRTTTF
The target in test [3] is Somatostatin receptor type 1 (Homo sapiens, UniProt P30872). The test is described as follows: Displacement of [125I]-[LTT]-SS28 from human SST1 receptor expressed in CHO cells after 2 hrs by autoradiographic analysis. A general note: In a radioligand displacement assay an active substance lowers the binding of a labelled ligand.
Chain of Somatostatin receptor type 1 (P30872 whole entry): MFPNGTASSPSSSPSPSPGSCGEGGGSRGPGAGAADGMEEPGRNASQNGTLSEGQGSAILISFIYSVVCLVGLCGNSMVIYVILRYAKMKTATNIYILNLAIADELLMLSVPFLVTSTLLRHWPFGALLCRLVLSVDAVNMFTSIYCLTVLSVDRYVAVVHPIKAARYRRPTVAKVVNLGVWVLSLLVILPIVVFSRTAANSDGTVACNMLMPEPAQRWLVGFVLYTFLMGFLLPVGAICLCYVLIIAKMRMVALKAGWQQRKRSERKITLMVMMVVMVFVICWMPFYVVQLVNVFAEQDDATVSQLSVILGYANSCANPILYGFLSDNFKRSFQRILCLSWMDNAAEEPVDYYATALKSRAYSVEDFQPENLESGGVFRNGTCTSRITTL
Test [4] addresses T1, Somatostatin receptor type 2 (Homo sapiens, UniProt P30874). As to the kind of experiment: Agonist activity at T7-epitope-tagged human SST2A receptor expressed in HEK293 cells assessed as stimulation of receptor internalization at 1 uM after 30 mins by immunofluorescence microscopic analysis.
For test [5], the target named is Somatostatin receptor type 5 (Homo sapiens, UniProt P35346). As to the kind of experiment: Displacement of [125I]-[LTT]-SS28 from human SST5 receptor expressed in HEK293 cells after 2 hrs by autoradiographic analysis.
Chain of Somatostatin receptor type 5 (P35346 whole entry): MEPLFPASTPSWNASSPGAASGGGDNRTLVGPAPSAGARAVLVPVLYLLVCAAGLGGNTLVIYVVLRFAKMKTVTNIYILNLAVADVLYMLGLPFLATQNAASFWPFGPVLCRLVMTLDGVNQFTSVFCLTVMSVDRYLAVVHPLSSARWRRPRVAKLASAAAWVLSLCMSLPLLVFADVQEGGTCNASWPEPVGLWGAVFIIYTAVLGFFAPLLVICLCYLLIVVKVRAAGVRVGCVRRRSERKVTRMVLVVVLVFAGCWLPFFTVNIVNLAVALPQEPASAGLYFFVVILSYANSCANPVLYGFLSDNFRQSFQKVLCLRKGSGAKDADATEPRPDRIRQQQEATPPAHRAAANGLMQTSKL
In test [6] the target is T1, Somatostatin receptor type 2. As to the kind of experiment: Displacement of [125I]-[LTT]-SS28 from human SST2 receptor expressed in Chinese hamster CCL-39 cells after 2 hrs by autoradiographic analysis.

The source made the active and inactive calls. The calls are words filed in the database; no cut-off is given here. Bounds are passed on as bounds.

T1 sequence (P30874 whole entry): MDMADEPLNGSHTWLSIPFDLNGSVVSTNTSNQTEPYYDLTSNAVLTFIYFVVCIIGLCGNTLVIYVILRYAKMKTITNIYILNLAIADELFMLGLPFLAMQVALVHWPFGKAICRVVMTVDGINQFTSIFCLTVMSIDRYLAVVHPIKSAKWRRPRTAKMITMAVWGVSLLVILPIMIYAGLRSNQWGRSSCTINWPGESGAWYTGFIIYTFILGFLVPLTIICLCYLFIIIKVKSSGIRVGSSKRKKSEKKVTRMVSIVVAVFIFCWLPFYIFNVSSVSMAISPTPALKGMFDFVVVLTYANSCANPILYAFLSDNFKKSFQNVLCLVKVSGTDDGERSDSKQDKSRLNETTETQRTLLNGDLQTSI
Chain of Somatostatin receptor type 3 (P32745 whole entry): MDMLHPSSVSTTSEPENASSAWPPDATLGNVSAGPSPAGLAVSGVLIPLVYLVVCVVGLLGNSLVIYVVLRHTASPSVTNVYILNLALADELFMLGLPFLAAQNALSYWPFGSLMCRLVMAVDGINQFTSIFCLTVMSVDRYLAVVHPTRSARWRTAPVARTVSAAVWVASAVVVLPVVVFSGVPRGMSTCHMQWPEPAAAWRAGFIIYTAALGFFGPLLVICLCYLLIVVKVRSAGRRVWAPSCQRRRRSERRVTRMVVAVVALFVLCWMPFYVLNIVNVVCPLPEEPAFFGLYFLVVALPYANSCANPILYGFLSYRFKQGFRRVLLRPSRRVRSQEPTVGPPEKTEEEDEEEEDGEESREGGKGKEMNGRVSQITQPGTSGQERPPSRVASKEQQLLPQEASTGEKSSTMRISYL

What is called IC50 is the midpoint of a concentration-inhibition curve. A higher IC50 goes with a need for much substance. For `CCCC[C@H](NC(=O)CNC(=O)[C@H](C)NC(=O)CN1CCN(CC(=O)O)CCN(CC(=O)O)CCN(CC(=O)O)CC1)C(=O)N[C@@H](CCCCN)C(=O)N[C@@H]1CSSC[C@@H](C(=O)N[C@@H](CO)C(=O)NCC(=O)O)NC(=O)[C@H](Cc2ccccc2)NC(=O)[C@H]([C@@H](C)O)NC(=O)[C@H](CCCCN)NC(=O)[C@@H](Cc2c[nH]c3ccccc23)NC(=O)[C@H](Cc2ccccc2)NC(=O)[C@H](Cc2ccccc2)NC1=O`, the IC50 came to 98 nM in test [1]; 5.4 nM in test [2]; 18 nM in test [3]; 37 nM in test [5]; 50 nM in test [6]. Moreover, in test [4], the outcome was inactive.

Regarding `CCCC[C@H](NC(=O)CNC(=O)[C@H](C)NC(=O)CN1CCN(CC(=O)O)CCN(CC(=O)O)CCN(CC(=O)O)CC1)C(=O)N[C@@H](CCCCN)C(=O)N[C@H]1CSSC[C@@H](C(=O)N[C@@H](CO)C(=O)NCC(=O)O)NC(=O)[C@H](Cc2ccccc2)NC(=O)[C@H]([C@@H](C)O)NC(=O)[C@H](CCCCN)NC(=O)[C@@H](Cc2c[nH]c3ccccc23)NC(=O)[C@H](Cc2ccccc2)NC(=O)[C@H](Cc2ccccc2)NC1=O`, the 50% inhibitory concentration (IC50) in test [1] stood at 16 nM; in test [2], 4 nM; in test [3], 33 nM; in test [5], 50 nM; in test [6] it was 11 nM. The outcome in test [4] was Active.

For the compound `C[C@@H](O)[C@@H]1NC(=O)[C@H](CCCCN)NC(=O)[C@@H](Cc2c[nH]c3ccccc23)NC(=O)[C@H](Cc2ccccc2)NC(=O)[C@H](Cc2ccccc2)NC(=O)[C@@H](NC(=O)[C@H](CCCNC(=N)N)NC(=O)COCCOCCNC(=O)CN2CCN(CC(=O)O)CCN(CC(=O)O)CCN(CC(=O)O)CC2)CSSC[C@@H](C(=O)O)NC(=O)[C@H](CO)NC(=O)[C@H](Cc2ccccc2)NC1=O`, the IC50 in test [1] worked out at 24 nM; in test [2], 0.9 nM; in test [3] it was 171 nM; in test [5], 16 nM; in test [6], 0.76 nM. In addition, the result in test [4] was Active.

As to `C[C@@H](O)[C@@H]1NC(=O)[C@H](CCCCN)NC(=O)[C@@H](Cc2c[nH]c3ccccc23)NC(=O)[C@H](Cc2ccccc2)NC(=O)[C@H](Cc2ccccc2)NC(=O)[C@@H](NC(=O)CNC(=O)COCCOCCNC(=O)CN2CCN(CC(=O)O)CCN(CC(=O)O)CCN(CC(=O)O)CC2)CSSC[C@@H](C(=O)O)NC(=O)[C@H](CO)NC(=O)[C@H](Cc2ccccc2)NC1=O`, the 50% inhibitory concentration (IC50) in test [1] came out at 18 nM; in test [2], 1.2 nM; in test [3], 795 nM; in test [5] it was 58 nM; in test [6], 1 nM. Besides, the outcome in test [4] was Active.

`C[C@H](NC(=O)CN1CCN(CC(=O)O)CCN(CC(=O)O)CCN(CC(=O)O)CC1)C(=O)NCC(=O)N[C@H]1CSSC[C@H](C(=O)O)NC(=O)[C@H](CO)NC(=O)[C@H]([C@@H](C)O)NC(=O)[C@H](Cc2ccccc2)NC(=O)[C@H]([C@@H](C)O)NC(=O)[C@H](CCCCN)NC(=O)[C@@H](Cc2c[nH]c3ccccc23)NC(=O)[C@H](Cc2ccccc2)NC(=O)[C@H](Cc2ccccc2)NC(=O)[C@H](CC(N)=O)NC(=O)[C@H](CCCNC(=N)N)NC1=O`: the concentration for half-maximal inhibition (IC50) came to 16 nM in test [1]; 2.8 nM in test [2]; 38 nM in test [3]; 25 nM in test [5]; 1.6 nM in test [6]. Moreover, in test [4], the outcome was Active.

Take `CCCC[C@H](NC(=O)CNC(=O)[C@H](C)NC(=O)CN1CCN(CC(=O)O)CCN(CC(=O)O)CCN(CC(=O)O)CC1)C(=O)N[C@@H](CCCCN)C(=O)N[C@@H](CC(N)=O)C(=O)N[C@H]1CSSC[C@@H](C(=O)N[C@H](C(=O)N[C@@H](CO)C(=O)NCC(=O)O)[C@@H](C)O)NC(=O)[C@H]([C@@H](C)O)NC(=O)[C@H](CCCCN)NC(=O)[C@@H](Cc2c[nH]c3ccccc23)NC(=O)[C@H](Cc2ccc(O)cc2)NC1=O`: the concentration for half-maximal inhibition (IC50) was above 1000 nM in test [1]; above 1000 nM in test [2]; above 1000 nM in test [3]; above 1000 nM in test [5]; 946 nM in test [6]. Also, the result in test [4] was inactive.

With `CCCC[C@H](NC(=O)CNC(=O)[C@H](C)NC(=O)CN1CCN(CC(=O)O)CCN(CC(=O)O)CCN(CC(=O)O)CC1)C(=O)N[C@@H](CCCCN)C(=O)N[C@@H](CC(N)=O)C(=O)N[C@H]1CSSC[C@@H](C(=O)N[C@H](C(=O)N[C@@H](CO)C(=O)NCC(=O)O)[C@@H](C)O)NC(=O)[C@H]([C@@H](C)O)NC(=O)[C@H](CCCCN)NC(=O)[C@@H](Cc2c[nH]c3ccccc23)NC(=O)[C@H](Cc2ccccc2)NC1=O`, the IC50 in test [1], in test [2], in test [3], in test [5] and in test [6] was above 1000 nM throughout. Further, the result in test [4] was inactive.
